Results taken from patent US20070104743A1, “Formulations of fispemifene” (HORMOS MEDICAL LTD., priority 2005, published 2007).

How the values were obtained:
[1] = Serum concentration of fispemifene in monkeys after administration in two different vehicles; type: in vivo; conditions: two female Cynomolgus monkeys, single oral dose 500 mg/kg, LC-MS/MS
Description: Serum concentration of fispemifene in monkeys after administration of fispemifene in two different vehicles
A pilot study on exposure of fispemifene in two female Cynomolgus monkeys ( #05084 and #06170) was carried out. Fispemifene was administered by single oral dosing of 500 mg/kg in two different vehicles, 0.5% carboxymethyl cellulose in water (CMC), and in corn oil. Blood samples were collected 0, 1, 2, 4, 6, 8, 12, 16 and 24 hours after dosing. Concentrations of fispemifene were determined using LC-MS/MS.

[2] = Solubility in water; type: physicochemical

fispemifene quantifiable in serum samples after drug administration ([1]; CMC or corn oil vehicle, samples 1-24 h): quantifiable in all serum samples | serum fispemifene concentration, corn oil vehicle relative to 0.5% CMC in aqueous solution ([1]; corn oil vs 0.5% carboxymethyl cellulose in water, 0-24 h): more than 10 fold | solubility in water [2]: only sparingly soluble
Compound: OCCOCCOc1ccc(/C(=C(/CCCl)c2ccccc2)c2ccccc2)cc1 [Fispemifene, (Z)-2-{2-[4-(4-chloro-1,2-diphenylbut-1-enyl)phenoxy]ethoxy}ethanol]
